The subject of one data set is mice. In words: Toxicity (minimum lethal dose) in mice. The note with it: administered subcutaneously in mice. In kind it is in vivo. The text has this:
The relationship between the toxicity (minimum lethal dose) of the peptide compound obtained in Examples 1 and 2 of the present invention and the effective dose is shown in Table 4.
Effective dose and minimum lethal dose
when administered subcutaneously in mice

The next data set concerns rabbit vas deferens. In words: Opioid activity, rabbit vas deferens method (inhibition of electrically stimulated contraction). The following applies: electric stimulation 0.1 Hz, 1 ms, 90 volt. It is filed as cell-based. Here is the method:
The opioid activities of the compounds of the invention were examined by the method using rabbit vas deferens according to T. Oka, K. Negishi, M. Suda, T. Matsumiya, T. Inaza and M. Ueki, "Europ. J. Pharmacol.", Vol. 73, 235 (1980). In this test, mature male rabbits were sacrificed by introducing air into an […]. Immediately after death, a laparotomy was conducted and right and left vasa deferens were removed. The semen was pressed out of the ducts into Ringer's solution. A part of each duct was cut ([…] long from an end of the prostrate gland side). The pieces of the deferentaial ducts were suspened by means of a thread in a 6 ml constant-temperature glass cell and stimulated electrioally with an electric stimulation device having platinum electrodes under conditions of 0.1 Hz, 1 ms and 90 volt. A contraction due to the electric stimulation was recorded through a transducer.
The opioid activity was determined on the basis of the inhibition of the contraction due to the electric stimulation.
The results are shown in Table 3 in terms of 50% inhibitation concentration (IC50).
The following compounds obtained in the examples ere tested in the same way as described above.

Consider `CCNC(=O)[C@@H](CC(C)C)NC(=O)[C@H](CCCNC(=N)N)N(C)C(=O)[C@H](CCCNC(=N)N)NC(=O)[C@H](CC(C)C)NC(=O)[C@H](Cc1ccccc1)NC(=O)CNC(=O)CNC(=O)[C@H](Cc1ccc(O)cc1)NC` [Example 1, CH3 Tyr-Gly-Gly-Phe-Leu-Arg-CH3 Arg-D-Leu-NHC2 H5], for which, in the data set with mice, the “Minimum Lethal Dose” value was determined as 100 mg/kg. Turning to `CN[C@@H](Cc1ccc(O)cc1)C(=O)NCC(=O)NCC(=O)N[C@@H](Cc1ccccc1)C(=O)N[C@@H](CC(C)C)C(=O)N[C@@H](CCCNC(=N)N)C(=O)N(C)[C@@H](CCCNC(=N)N)C(=O)N[C@H](C)C(=O)O` [Example 30, CH3 Tyr-Gly-Gly-Phe-Leu-Arg-CH3 Arg-D-Ala-OH], in the data set with mice, the “Minimum Lethal Dose” value is > 100 mg/kg. Turning to `CN[C@@H](Cc1ccc(O)cc1)C(=O)NCC(=O)NCC(=O)N[C@@H](Cc1ccccc1)C(=O)N[C@@H](CC(C)C)C(=O)N[C@@H](CCCNC(=N)N)C(=O)N(C)[C@@H](CCCNC(=N)N)C(=O)N(C)[C@@H](C)C(=O)O` [Example 31, CH3 Tyr-Gly-Gly-Phe-Leu-Arg-CH3 Arg-CH3 Ala-OH], in the data set with mice, the “Minimum Lethal Dose” value is > 100 mg/kg. `CC[C@H](C)[C@@H](C(=O)O)N(C)C(=O)[C@H](CCCNC(=N)N)N(C)C(=O)[C@H](CCCNC(=N)N)NC(=O)[C@H](CC(C)C)NC(=O)[C@H](Cc1ccccc1)NC(=O)CNC(=O)CNC(=O)[C@H](Cc1ccc(O)cc1)NC` [Example 36, CH3 Tyr--Gly--Gly--Phe--Leu--Arg--CH3 Arg--CH3 Ile--OH]: the “Minimum Lethal Dose” value in the data set on mice was > 100 mg/kg. In the data set on rabbit vas deferens, “H-Tyr-Gly-Gly-Phe-Leu-Arg-Arg-Ile-Arg-Pro-Lys-Leu-Lys-Trp-Asp-Asn-Gln-OH [dynorphin A (1-17)]” registered an IC50 of 17.4 nM.

The IC50 is the concentration needed to halve the response being measured. Read a low IC50 as greater potency in that assay.

The record behind these values is patent publication US4707468A, “Polypeptide” (Eisai Co., Ltd., priority 1984, dated 1987).
